Key:
ACAT enzyme [1] = settings: known drug; cited from earlier work
ACAT enzyme [2] = assay: ACAT Inhibition Assay (inhibition of cholesterol esterification in cultured Fu5AH rat hepatoma cells); format: cell-based; design: key to Activity: Active: Compounds with ACAT inhibiting activity equal to, or greater than, that of chloropromazine are declared active; settings: for % Inhib. of Chol. Esterf.: Fu5AH cells, 18 hours; for Activity: compared with chlorpromazine
Source text: A standard in vitro test system designed to identify compounds capable of inhibitory the ACAT enzyme in cultured Fu5AH rat hepatoma cells which was used to test the compounds of this invention, among others, is described hereinbelow.
Since the ACAT enzyme in Fu5AH cells is similar if not identical to the ACAT enzyme in arterial tissue in valuable, warm-blooded animals, including humans, the Fu5AH cell test represents a more efficient, simplified and economical means of screening for ACAT inhibitors than similar assays which depend upon the use of arterial tissue and arterial subfractions as the source of the ACAT enzyme.
For our in vitro test the Fu5AH rat hepatoma cell line was selected as our source of the ACAT enzyme since this particular cell line mimicked important characteristics of human and valuable animal arterial cells during the development of atherosclerosis. The Fu5AH cells accumulate cholesterol extensively when incubated with hyperlipemic plasma proteins; more importantly, Fu5HA cells accumulated the cholesterol predominantly as the esterified form through the action of the ACAT enzyme. See Rothblat, G. H., "Cholesteryl Ester Metabolism in Tissue Culture Cell. I. Accumulation in Fu5AH Rat Hepatoma Cells", Lipids, 9, (1974) page 526.
The Fu5AH cells used in our in vitro assay were first acquired from G. H. Rothblat, supra, of the Medical College of Pa.
The Fu5AH rat hepatoma cell-line was derived from the Reuber H-35 rat hepatoma. (See Reuber, M.D., "A Transplantable Bilesecreting Hepatocellular Carcinoa in the Rat", J. Natl., Cancer Inst., 26 (1961), page 891. The cell-line is maintained in Eagle's Minimal Essential Medium (MEM, GiBCO) supplemented with 5% bovine fetal calf serum. Incubation is at 36° C. in an atmosphere of 5% CO2 in air (Hotpack, Model 351922). Cells from stock cultures, grown to confluency in 25 cm^2 flasks (Falcon) containing 10 ml. medium, are detached with 0.25% trypsin in 1% ethylenediaminetetraacetic acid (EDTA) (Gibco), diluted 1:10 with MEM and mixed by agitation through a pipette which serves to disrupt the cellular clumps. Stock cultures are replenished with fresh medium at 3 to 4 day intervals.
One ml. aliquots of the diluted stock suspension described above are then transferred to 60 mm. dishes (Falcon) containing four ml. MEM and the seeded cells are allowed to grow to confluence (three days). At confluence, the medium is removed by aspiration and the cells are washed once with MEM. Five ml. of MEM supplemented with 5% hyperlipemic rabbit serum (HRS) (HRS is obtained from male New Zealane rabbits fed Purina Chow® rabbit feed supplemented with 1% cholesterol and 3% peanut oil (w/w/w/) for two to three weeks. Pooled sera from two or more rabbits are filtered through a 0.45 mμ filter (Nalgene) and stored frozen in convenient aliquots until used) and containing 1μ Ci/ml of ^3 H-cholesterol are then added to the dishes as the experimental (assay) medium. The experimental medium is labeled with 1,2-^3 H(N)-cholesterol (sp. act. approx. 40-60 Ci/mol, New Zealand Nuclear Corp.) prior to its addition to the confluent cultures and is prepared as follows. Five ml. of HRS is diluted with approximately 20 ml of MEM and the mixture is labeled by the addition of 100 μCi ^3 H-cholesterol dissolved in 100 μl absolute ethyl alcohol. The resulting mixture is then incubated for four hours at 36° C. to permit equilibration of the labeled cholesterol with the serum lipoprotein-cholesterol. After the equilibration period, the mixture is diluted to 100 ml. with MEM and used as the labeled assay medium. Following the addition of the labeled medium to the dishes, dimethylsulfoxide solutions of the test substances and the positive standard chloropromazine HCl (1 mg/ml) are added to the cultures in volumes of 25, 50, […]; control cultures receive equivalent volumes of dimethylsufoxide alone. […]

**Q.** With CC(C)NC[C@H](O)COc1cccc2ccccc12 (racemic) [propanolol] as the compound, how does the “ACAT enzyme inhibition (in words)” value (ACAT enzyme [1]) read?
**A.** ACAT enzyme inhibiting activity

**Q.** For O=C1c2[nH]c3cc(-c4ccccc4)nn3c(=O)c2CN1C1CCCCC1 [6-Cyclohexyl-4,7-dihydro-2-phenyl-5H-pyrazolo[1,5-a]pyrrolo[3,4-d]pyrimidine-5,8(6H)-dione, reference compound], which “activity in the ACAT enzyme screen (in words)” value (ACAT enzyme [2]; starting material) is on record?
**A.** inactive

**Q.** Which “% Inhib. of Chol. Esterf.” value (ACAT enzyme [2]; 5.0 ug/ml) does the source give for CCCCCCn1c2c(c(=O)n3nc(-c4ccccc4)cc13)CN(C1CCCCC1)C2=O [Example 3, 6-Cyclohexyl-6,7-dihydro-4-hexyl-2-phenyl-4H-pyrazolo[1,5-a]pyrrolo[3,4-d]pyrimidine-5,8-dione] here?
**A.** 43.4%

**Q.** What about the Activity (ACAT enzyme [2]; 5.0 ug/ml) of the same compound?
**A.** Active

**Q.** And the “% Inhib. of Chol. Esterf.” value (ACAT enzyme [2]; 10.0 ug/ml)?
**A.** 48.2%

**Q.** And the Activity (ACAT enzyme [2]; 10.0 ug/ml)?
**A.** Active

**Q.** And the “% Inhib. of Chol. Esterf.” value (ACAT enzyme [2]; 15.0 ug/ml)?
**A.** 49.2%

**Q.** What about the Activity (ACAT enzyme [2]; 15.0 ug/ml) of the same compound?
**A.** Active

**Q.** Which results are given for CCOc1ccc(-c2cc3n(Cc4ccccc4)c4c(c(=O)n3n2)CN(C2CCCCC2)C4=O)cc1 [Example 6, 6-Cyclohexyl-6,7-dihydro-2-(4-ethoxyphenyl)-4-(phenylmethyl)-(4H)-pyrazolo[1,5-a]pyrrolo[3,4-d]pyrimidine-5,8-dione]?
**A.** % Inhib. of Chol. Esterf. (ACAT enzyme [2]; 5.0 ug/ml): 49.8%; Activity (ACAT enzyme [2]; 5.0 ug/ml): Active; % Inhib. of Chol. Esterf. (ACAT enzyme [2]; 10.0 ug/ml): 75.4%; Activity (ACAT enzyme [2]; 10.0 ug/ml): Active; % Inhib. of Chol. Esterf. (ACAT enzyme [2]; 15.0 ug/ml): 87.2%; Activity (ACAT enzyme [2]; 15.0 ug/ml): Active

**Q.** Which results are given for O=C1c2c(c(=O)n3nc(-c4ccccc4)cc3n2Cc2ccccc2)CN1c1ccccc1 [Example 7, 6,7-Dihydro-2,6-diphenyl-4-(phenylmethyl)-4H-pyrazolo[1,5-a]pyrrolo[3,4-d]-pyrimidine-5,8-dione]?
**A.** % Inhib. of Chol. Esterf. (ACAT enzyme [2]; 5.0 ug/ml): 21.2%; Activity (ACAT enzyme [2]; 5.0 ug/ml): Active; % Inhib. of Chol. Esterf. (ACAT enzyme [2]; 10.0 ug/ml): 17.6%; Activity (ACAT enzyme [2]; 10.0 ug/ml): Inactive; % Inhib. of Chol. Esterf. (ACAT enzyme [2]; 15.0 ug/ml): 15.0%; Activity (ACAT enzyme [2]; 15.0 ug/ml): Inactive

**Q.** Which “% Inhib. of Chol. Esterf.” value (ACAT enzyme [2]; 5.0 ug/ml) does the source give for O=C1c2c(c(=O)n3nc(-c4ccccc4)cc3n2Cc2ccccc2)CN1Cc1ccccc1 [Example 8, 4,6-Bis(phenylmethyl)-6,7-dihydro-2-phenyl-4H-pyrazolo[1,5-a]pyrrolo[3,4-d]pyrimidine-5,8-dione] here?
**A.** 60.8%

**Q.** And the Activity (ACAT enzyme [2]; 5.0 ug/ml)?
**A.** Active

**Q.** And the “% Inhib. of Chol. Esterf.” value (ACAT enzyme [2]; 10.0 ug/ml)?
**A.** 89.5%

**Q.** And the Activity (ACAT enzyme [2]; 10.0 ug/ml)?
**A.** Active

**Q.** What about the “% Inhib. of Chol. Esterf.” value (ACAT enzyme [2]; 15.0 ug/ml) of the same compound?
**A.** 92.3%

**Q.** What about the Activity (ACAT enzyme [2]; 15.0 ug/ml) of the same compound?
**A.** Active

**Q.** For O=C1c2c(c(=O)n3nc(-c4ccccc4)cc3n2Cc2ccccc2)CCN1C1CCCCC1 [Example 9, 6-Cyclohexyl-2-phenyl-4-(phenylmethyl)-5,6,7,8-tetrahydro-4H-pyrazolo[1,5-a]pyrido[3,4-d]pyrimidine-5,9-dione], which “% Inhib. of Chol. Esterf.” value (ACAT enzyme [2]; 5.0 ug/ml) is on record?
**A.** 53.2%

**Q.** And the Activity (ACAT enzyme [2]; 5.0 ug/ml)?
**A.** Active

**Q.** What about the “% Inhib. of Chol. Esterf.” value (ACAT enzyme [2]; 10.0 ug/ml) of the same compound?
**A.** 82.1%

**Q.** And the Activity (ACAT enzyme [2]; 10.0 ug/ml)?
**A.** Active

**Q.** And the “% Inhib. of Chol. Esterf.” value (ACAT enzyme [2]; 15.0 ug/ml)?
**A.** 89.8%

**Q.** And the Activity (ACAT enzyme [2]; 15.0 ug/ml)?
**A.** Active

**Q.** Which “% Inhib. of Chol. Esterf.” value (ACAT enzyme [2]; 5.0 ug/ml) does the source give for O=C1c2c(c(=O)n3ncc(-c4ccccc4)c3n2Cc2ccccc2)CN1C1CCCCC1 [Example 10, 6-Cyclohexyl-6,7-dihydro-3-phenyl-4-(phenylmethyl)-4H-pyrazolo-[1,5-a]pyrrolo[3,4-d]-pyrimidine-5,8-dione] here?
**A.** 34.4%

**Q.** What about the Activity (ACAT enzyme [2]; 5.0 ug/ml) of the same compound?
**A.** Active

**Q.** And the “% Inhib. of Chol. Esterf.” value (ACAT enzyme [2]; 10.0 ug/ml)?
**A.** 20.9%

**Q.** What about the Activity (ACAT enzyme [2]; 10.0 ug/ml) of the same compound?
**A.** Inactive

**Q.** What about the “% Inhib. of Chol. Esterf.” value (ACAT enzyme [2]; 15.0 ug/ml) of the same compound?
**A.** 9.1%

**Q.** What about the Activity (ACAT enzyme [2]; 15.0 ug/ml) of the same compound?
**A.** Inactive

**Q.** Which “% Inhib. of Chol. Esterf.” value (ACAT enzyme [2]; 5.0 ug/ml) does the source give for O=C(Cn1c2c(c(=O)n3nc(-c4ccc(Cl)cc4)cc13)CN(C1CCCCC1)C2=O)c1ccccc1 [Example 11, 4-(Benzoylmethyl)-2-(4-chlorophenyl)-6-cyclohexyl-6,7-dihydro-4H-pyrazolo[1,5-a]pyrrolo[3,4-d]pyrimidine-5,8-dione] here?
**A.** 78.2%

**Q.** What about the Activity (ACAT enzyme [2]; 5.0 ug/ml) of the same compound?
**A.** Active

**Q.** And the “% Inhib. of Chol. Esterf.” value (ACAT enzyme [2]; 10.0 ug/ml)?
**A.** 84.5%

**Q.** And the Activity (ACAT enzyme [2]; 10.0 ug/ml)?
**A.** Active

**Q.** What about the “% Inhib. of Chol. Esterf.” value (ACAT enzyme [2]; 25.0 ug/ml (so in the source)) of the same compound?
**A.** 89.2%

**Q.** And the Activity (ACAT enzyme [2]; 25.0 ug/ml (so in the source))?
**A.** Active

**Q.** With O=C1c2c(c(=O)n3nc(-c4ccccc4)cc3n2CC(O)c2ccccc2)CN1C1CCCCC1 (stereo not drawn) [Example 14, 6-Cyclohexyl-6,7-dihydro-4-(2-hydroxy-2-phenylethyl)-2-phenyl-4H-oyrazolo[1,5-a] pyrrolo[3,4-d]pyrimidine-5,8-dione] as the compound, how does the “% Inhib. of Chol. Esterf.” value (ACAT enzyme [2]; 5.0 ug/ml) read?
**A.** 49.6%

**Q.** And the Activity (ACAT enzyme [2]; 5.0 ug/ml)?
**A.** Active

**Q.** And the “% Inhib. of Chol. Esterf.” value (ACAT enzyme [2]; 10.0 ug/ml)?
**A.** 65.9%

**Q.** And the Activity (ACAT enzyme [2]; 10.0 ug/ml)?
**A.** Active

**Q.** And the “% Inhib. of Chol. Esterf.” value (ACAT enzyme [2]; 15.0 ug/ml)?
**A.** 40.2%

**Q.** And the Activity (ACAT enzyme [2]; 15.0 ug/ml)?
**A.** Inactive

**Q.** What does the source list for C=CCOc1ccc(-c2cc3n(Cc4ccccc4)c4c(c(=O)n3n2)CN(C2CCCCC2)C4=O)cc1 [Example 15, 6-Cyclohexyl-6,7-dihydro-2-[4-(2-propenyloxy)phenyl]-4-phenylmethyl-4H-pyrazolo[1,5-a]pyrrolo[3,4-d]pyrimidine-5,8-dione]?
**A.** % Inhib. of Chol. Esterf. (ACAT enzyme [2]; 5.0 ug/ml): 36.0%; Activity (ACAT enzyme [2]; 5.0 ug/ml): Active; % Inhib. of Chol. Esterf. (ACAT enzyme [2]; 10.0 ug/ml): 65.3%; Activity (ACAT enzyme [2]; 10.0 ug/ml): Active; % Inhib. of Chol. Esterf. (ACAT enzyme [2]; 15.0 ug/ml): 84.3%; Activity (ACAT enzyme [2]; 15.0 ug/ml): Active

**Q.** Which results are given for O=C1c2c(c(=O)n3nc(-c4ccc(O)cc4)cc3n2Cc2ccccc2)CN1C1CCCCC1 [Example 16, 6-Cyclohexyl-6,7-dihydro-2-(4-hydroxyphenyl)-4-phenyl-methyl-4H-pyrazolo[1,5-a]pyrrolo[3,4-d]pyrimidine-5,8-dione]?
**A.** % Inhib. of Chol. Esterf. (ACAT enzyme [2]; 5.0 ug/ml): 4.3%; Activity (ACAT enzyme [2]; 5.0 ug/ml): Inactive; % Inhib. of Chol. Esterf. (ACAT enzyme [2]; 10.0 ug/ml): 32.7%; Activity (ACAT enzyme [2]; 10.0 ug/ml): Inactive; % Inhib. of Chol. Esterf. (ACAT enzyme [2]; 15.0 ug/ml): 66.5%; Activity (ACAT enzyme [2]; 15.0 ug/ml): Active

**Q.** With CN1C(=O)CN=C(c2ccccc2)c2cc(Cl)ccc21 [diazepam] as the compound, how does the “ACAT enzyme inhibition (in words)” value (ACAT enzyme [1]) read?
**A.** ACAT enzyme inhibiting activity

**Q.** With COc1ccc([C@@H]2Sc3ccccc3N(CCN(C)C)C(=O)[C@@H]2OC(C)=O)cc1 [diltiazem] as the compound, how does the “ACAT enzyme inhibition (in words)” value (ACAT enzyme [1]) read?
**A.** inhibit the ACAT enzyme

**Q.** Which “ACAT enzyme inhibition (in words)” value (ACAT enzyme [1]) does the source give for COC(=O)C1=C(C)NC(C)=C(C(=O)OC)C1c1ccccc1[N+](=O)[O-] [nifedipine] here?
**A.** inhibit the ACAT enzyme

**Q.** With COc1ccc(CCN(C)CCCC(C#N)(c2ccc(OC)c(OC)c2)C(C)C)cc1OC (stereo not drawn) [verapamil] as the compound, how does the “ACAT enzyme inhibition (in words)” value (ACAT enzyme [1]) read?
**A.** inhibit the ACAT enzyme

— US5132424A, “Pyrazolo-pyrrolo-pyrimidine-diones” (The Upjohn Company, priority 1991, dated 1992)
